Patent US7163711B2, “Crystalline α-D-glucosyl α-D-galactoside, saccharide composition comprising the same, process for producing the same, and uses thereof” (Kabushiki Kaisha Hayashibara Seibutsu Kagaku Kenkyujo, priority 2002, dated 2007)
Each block holds one compound with its values, some of them ahead of it.

Assays:
Type in all cases: physicochemical
[1] = Moisture absorption test on amorphous α-D-glucosyl α-D-galactoside; conditions: 25° C.; for Diffraction spectrum: powdery X-ray diffraction
Method: The crystalline powder of α-D-glucosyl α-D-galactoside obtained in Experiment 3 was examined for crystallinity by powdery X-ray diffraction analysis by using “GEIGERFLEX RAD-IIB™”, an X-ray diffraction analyzer using Cuk α ray commercialized by Rigaku Corporation, Tokyo, Japan, to obtain a spectrum as shown in FIG. 3 having peaks with diffraction angles (2θ) of at least 13.4°, 17.4°, 19.7°, and 22.3°. Crystallinity of the crystallized powder was calculated to be about 72.5% by using “Program for Crystallinity Analysis by Ruland method”, a computer program installed in the analyzer.
(§1) A half gram aliquots of the crystalline powder of α-D-glucosyl α-D-galactoside obtained in Experiment 3 were placed in aluminum weighing cans, which had been precisely weighed in advance, and each weighing can was weighed. The weight of each weighing can was subtracted from the total weight to calculate the starting weight of the crystalline powder of α-D-glucosyl α-D-galactoside. Each weighing can with the crystalline powder of α-D-glucosyl α-D-galactoside was placed in a glass desiccator which the relative humidity was controlled to a level of 33–99% in advance, and stored at 25° C. for one to seven days while keeping at the desired humidity. After the moisture absorption test, each weighing can had been precisely weighted and calculated for increasing weight to obtain a moisture absorption level (%). In the test, the crystalline powder was macroscopically observed.
The crystalline powder of α-D-glucosyl α-D-galactoside obtained in Experiment 3 was dissolved in water to obtain an aqueous solution with a concentration of 30% (w/w). The resultant aqueous solution was frozen and dried into an amorphous powder of α-D-glucosyl α-D-galactoside. Similar as in Experiment 10, the obtained amorphous powder was placed in aluminum weighing cans, and the cans were placed in a glass desiccator which the relative humidity was controlled to a level of 43–90% in advance, and stored at 25° C. for one to seven days while keeping at the desired humidity. After the moisture absorption test, moisture absorption level (%) was calculated similarly as in Experiment 10. In the test, the appearance of each powder was macroscopically observed. Samples after a storage for seven days were confirmed for their appearance by a powdery X-ray diffraction analysis in Experiment 4, and samples with crystals were examined for their crystallinity.

[2] = Saturated concentration for water; conditions: shaken 48 hours, d.s.b.
Method: A surplus volume of the crystalline powder of α-D-glucosyl α-D-galactoside obtained in Experiment 3 was added to 10 ml of distilled water, shaken at 25° C. or 40° C. for 48 hours, and filtrated to collect a crystalline powder, which is more than the solubility, by using a 0.45 μm filter, followed by collecting two filtrates (saturated solutions). Moisture content of the filtrates was measured by using a desiccating agent method described in “Standard Methods of Analysis in Food Safety Regulation, Chemistry” published by Japan Food Hygiene Association under the editorship of Ministry of Health, Labor and Welfare, 1991, to examine a saturated concentration of α-D-glucosyl α-D-galactoside.

[3] = Moisture absorption test on crystalline α-D-glucosyl α-D-galactoside; conditions: 25° C.
Text: as §1

[4] = relative humidity 43%, storage for one day
[5] = relative humidity 43%, storage for seven days
[6] = relative humidity 53%, storage for one day
[7] = relative humidity 53%, storage for seven days
[8] = relative humidity 60%, storage for one day
[9] = relative humidity 60%, storage for seven days
[10] = relative humidity 90%, storage for one day
[11] = relative humidity 90%, storage for seven days
[12] = relative humidity 33%, storage one day
[13] = relative humidity 33%, storage seven days
[14] = relative humidity 33%, storage three days
[15] = relative humidity 33%, storage two days
[16] = relative humidity 43%, storage one day
[17] = relative humidity 43%, storage seven days
[18] = relative humidity 43%, storage three days
[19] = relative humidity 43%, storage two days
[20] = relative humidity 53%, storage one day
[21] = relative humidity 53%, storage seven days
[22] = relative humidity 53%, storage three days
[23] = relative humidity 53%, storage two days
[24] = relative humidity 60%, storage one day
[25] = relative humidity 60%, storage seven days
[26] = relative humidity 60%, storage three days
[27] = relative humidity 60%, storage two days
[28] = relative humidity 75%, storage one day
[29] = relative humidity 75%, storage seven days
[30] = relative humidity 75%, storage three days
[31] = relative humidity 75%, storage two days
[32] = relative humidity 84%, storage one day
[33] = relative humidity 84%, storage seven days
[34] = relative humidity 84%, storage three days
[35] = relative humidity 84%, storage two days
[36] = relative humidity 90%, storage one day
[37] = relative humidity 90%, storage seven days
[38] = relative humidity 90%, storage three days
[39] = relative humidity 90%, storage two days

A(%)* Moisture absorption level [1, 4]: 4.5%
Appearance (macroscopically observed) [1, 4]: Solidified
A(%)* Moisture absorption level [1, 5]: 6.3%
Appearance (macroscopically observed) [1, 5]: Solidified
Diffraction spectrum [1, 5]: Amorphous
A(%)* Moisture absorption level [1, 6]: 3.5%
Appearance (macroscopically observed) [1, 6]: Wet on the surface
A(%)* Moisture absorption level [1, 7]: 1.8%
Appearance (macroscopically observed) [1, 7]: Hardened
Crystallinity [1, 7]: 67%
Diffraction spectrum [1, 7]: Crystal monohydrate
A(%)* Moisture absorption level [1, 8]: 3.1%
Appearance (macroscopically observed) [1, 8]: Wet on the surface
A(%)* Moisture absorption level [1, 9]: 2.0%
Appearance (macroscopically observed) [1, 9]: Hardened
Crystallinity [1, 9]: 71%
Diffraction spectrum [1, 9]: Crystal monohydrate
A(%)* Moisture absorption level [1, 10]: 13.2%
Appearance (macroscopically observed) [1, 10]: Partial deliquescence
A(%)* Moisture absorption level [1, 11]: 36.2%
Appearance (macroscopically observed) [1, 11]: Deliquescence
moisture absorption (in words) ([1]; relative humidity of 43–90%, one to seven days): remarkably absorbed moisture
Compound: OC[C@H]1O[C@H](O[C@H]2O[C@H](CO)[C@@H](O)[C@H](O)[C@H]2O)[C@H](O)[C@@H](O)[C@H]1O [amorphous α-D-glucosyl α-D-galactoside, α-D-glucosyl α-D-galactoside]

saturated concentration in water ([2]; 25° C.): 68.9 % (w/w)
saturated concentration in water ([2]; 40° C.): 71.8 % (w/w)
A(%) Moisture absorption level [3, 12]: 0.0%
Appearance [3, 12]: Unchanged
A(%) Moisture absorption level [3, 13]: 0.0%
Appearance [3, 13]: Unchanged
A(%) Moisture absorption level [3, 14]: 0.0%
Appearance [3, 14]: Unchanged
A(%) Moisture absorption level [3, 15]: 0.0%
Appearance [3, 15]: Unchanged
A(%) Moisture absorption level [3, 16]: 0.0%
Appearance [3, 16]: Unchanged
A(%) Moisture absorption level [3, 17]: 0.0%
Appearance [3, 17]: Unchanged
A(%) Moisture absorption level [3, 18]: 0.0%
Appearance [3, 18]: Unchanged
A(%) Moisture absorption level [3, 19]: 0.0%
Appearance [3, 19]: Unchanged
A(%) Moisture absorption level [3, 20]: 0.0%
Appearance [3, 20]: Unchanged
A(%) Moisture absorption level [3, 21]: 0.1%
Appearance [3, 21]: Unchanged
A(%) Moisture absorption level [3, 22]: 0.0%
Appearance [3, 22]: Unchanged
A(%) Moisture absorption level [3, 23]: 0.0%
Appearance [3, 23]: Unchanged
A(%) Moisture absorption level [3, 24]: 0.1%
Appearance [3, 24]: Unchanged
A(%) Moisture absorption level [3, 25]: 0.2%
Appearance [3, 25]: Unchanged
A(%) Moisture absorption level [3, 26]: 0.1%
Appearance [3, 26]: Unchanged
A(%) Moisture absorption level [3, 27]: 0.1%
Appearance [3, 27]: Unchanged
A(%) Moisture absorption level [3, 28]: 0.1%
Appearance [3, 28]: Unchanged
A(%) Moisture absorption level [3, 29]: 0.2%
Appearance [3, 29]: Unchanged
A(%) Moisture absorption level [3, 30]: 0.1%
Appearance [3, 30]: Unchanged
A(%) Moisture absorption level [3, 31]: 0.1%
Appearance [3, 31]: Unchanged
A(%) Moisture absorption level [3, 32]: 3.2%
Appearance [3, 32]: Hardened
A(%) Moisture absorption level [3, 33]: 11.0%
Appearance [3, 33]: Hardened
A(%) Moisture absorption level [3, 34]: 6.1%
Appearance [3, 34]: Hardened
A(%) Moisture absorption level [3, 35]: 4.4%
Appearance [3, 35]: Hardened
A(%) Moisture absorption level [3, 36]: 6.9%
Appearance [3, 36]: p.d.
A(%) Moisture absorption level [3, 37]: 42.1%
Appearance [3, 37]: Deliquescence
A(%) Moisture absorption level [3, 38]: 19.2%
Appearance [3, 38]: Deliquescence
A(%) Moisture absorption level [3, 39]: 11.8%
Appearance [3, 39]: p.d.
moisture absorption (in words) ([3]; relative humidity of 75% or lower, one to seven days): did not absorb moisture
Compound: OC[C@H]1O[C@H](O[C@H]2O[C@H](CO)[C@@H](O)[C@H](O)[C@H]2O)[C@H](O)[C@@H](O)[C@H]1O [crystalline α-D-glucosyl α-D-galactoside, α-D-glucosyl α-D-galactoside]
